Entries after “also recorded” stand apart in the source; their conditions may differ.
Key:
Normal rats [1] = assay: Blood glucose, plasma insulin and HOMA-IR before clamp in normal rats (Example 1); format: in vivo, rat; conditions: vs vehicle
Method: The antibody used in this example consisted of the light and heavy polypeptide chains of SEQ ID NOs 132 and 134.
Blood glucose (BG) was measured between 07:30 and 08:00 (just before the light off) am from the tip of the tail with glucometer and a blood collection (on EDTA) was performed just after to measure plasma insulin. The table below describes the conditions:
Plasma samples were kept at −80° C. until insulin measurement (using ELISA method).
Vehicle and Ab14 were administered by i.v. route 48 h before the T0 of clamp procedure (at 02:00 pm two days before the clamp).
The rats were fasted 6 hours before the start of the clamp (at ˜8 h, just after the blood collection).

Normal rats [2] = assay: Individual tissue glucose utilization rate (14C-2-DOG) during clamp in normal rats (Example 1); format: in vivo, rat; conditions: Ab14 100 mg/kg i.v., metformin 500 mg/kg p.o., vs vehicle
Method: To determine the individual tissue glucose utilization rate, a bolus injection of 100 μCi per rat of deoxy-D-glucose 2-^14C (^14C-2-DOG) through the femoral vein was performed 60 min before the end of the D-[3-^3H]-glucose infusion. Plasma ^14C-2-DOG disappearance and glucose concentration were determined in 10 μL drops of blood sampled from the tip of the tail vein at 0, 5, 10, 15, 20, 25, 30, 45, and 60 minutes after the injection. At the end of the experiment, vastus lateralis (VL), extensor digitorum longus (EDL) and soleus muscles, epididymal and inguinal white adipose tissues, heart apex, and skin (as negative control) were dissected, flash frozen and kept at −80° C. A piece of each tissue was dissolved in 1M NaOH and then neutralized with 1M HCl. […]. D-2-^14C deoxyglucose was differentially precipitated by the use of a zinc hydroxide (0.3M) solution or a perchloric acid solution (6%). Both radioactivity contents were measured to evaluate the glucose uptake expressed as ng/mg/min.

HFD rats = assay: Body weight and food intake in high fat/high fructose diet (HFD) rats (Example 2); format: in vivo, rat; conditions: vs HFD vehicle
Method: After 6 weeks of HFD rats were randomized to treatment groups according to their glucose intolerance (AUC calculation during an oral glucose tolerance test (OGTT)) and their HOMA-IR (insulin resistance index).
Body weight and food consumption were measured 3 times per week until 10 days of treatment. HOMA-IR was measured on day 10 and 15. A 2-step clamp (5 mU/kg/min and then 15 mU/kg/min insulin) was performed on day 15 or 16. Glucose Turnover (GTO) was assessed using ^3H-glucose tracer infusion during the clamp procedure.
Ab14 (10, 30, 100 mg/kg) and the vehicle were weekly administered via i.v. route (via the caudal vein, under isoflurane anaesthesia), in the morning, on day 1 and day 8 of treatment.
Body weight was measured once a week during the first six week of HFD. Body weight was measured 3 times per week during the first 10 days of treatment. Food consumption was measured over 48 h or 72 h, just before treatment and 3 times per week during treatment until surgery procedure (day 11).

[3] = test system: Zucker diabetic fatty (ZDF) rat; assay: Plasma triglycerides, free fatty acids and cholesterol in ZDF rats (Example 3); format: in vivo; conditions: for increase of free fatty acids levels: vs vehicle ZDF, not significant
Method: For the groups treated with AB14, the antibody was administered once weekly via the caudal vein (i.v., 5 mL/kg) on days 1, 8, 15, and 22 at two different doses 20 mg/kg/week (groups 3 and 7) or 60 mg/kg/week (groups 4 and 8). All other groups were treated once weekly with vehicle 1 (i.v., 5 mL/kg). The intravenous treatments were performed in the morning on day 1, 8, 15, and 22 while under isoflurane anaesthesia. The volume of administration was individually adapted according to the most recent body weight.
All other groups were treated daily with vehicle 2 (p.o., 5 mL/kg) for 28 days. The most recent body weight was used to calculate the average volume of administration in each group.
A fasting (6 hours on day 0 from 8:00 am to 02:00 pm, and overnight on day 12, 19 and 26 from ˜6:00 pm to ˜8:00 am) was performed before each blood collection. Blood was collected at ˜2:00 pm, from the tip of the tail, on day 0 (before screening, 150 μL, potassium EDTA), and at ˜8:00 am prior to dosing on days 12 (110 μL, potassium EDTA), 19 (150 μL, potassium EDTA) and 26, (110 μL, potassium EDTA).
Fasting blood glucose (glucometers) was measured on days 0, 12, 19, and 26. Fasting plasma insulin, peptide-C (ELISA method), free fatty acids, triglycerides, total cholesterol (colorimetric method), and HDL-cholesterol (phosphotungstate precipitation, colorimetric method) were measured on day 0, and prior to dosing on days 12, 19, and day 26. Non HDL-cholesterol was calculated as total cholesterol—HDL-cholesterol. Fructosamine was measured on days 0, 19 and 28. HbA1c (DCA 2000) was measured on days 0 and 28.

[4] = test system: Zucker diabetic fatty (ZDF) rat; assay: Oral glucose tolerance test on day 26 in ZDF rats (Example 3); format: in vivo
Method: The oral glucose tolerance test (OGTT) was performed as follows. On day 25, rats were fasted at ˜6:00 pm and an oral glucose tolerance test was performed the day after (on day 26). At ˜8:00 am (T-60) a blood collection (110 μL, EDTA) was performed for biochemical parameters measurements. One hour after (˜09:00 am), an oral glucose bolus (1.5 g/kg) was administered (T0). Blood glucose was measured (glucometer or colorimetric method in case of high glycaemia) on T-60, T0, T15, T30, T60, T90, T120, and T180 minutes. Area under the curve (AUC) was calculated based on the blood glucose values measured at T0. Plasma insulin and C-peptide were measured (ELISA method) on T-60, T15 (·40 μL of blood, EDTA), and T30 minutes (·40 μL of blood, EDTA).

[5] = Ab14 10, 30, 100 mg/kg/week i.v., metformin 200 mg/kg/day

CN(C)C(=N)N=C(N)N [metformin, reference compound]
blood glucose in fed conditions (Normal rats [1]; fed, 42 h after Ab14 100 mg/kg i.v., 18 h after metformin 500 mg/kg p.o.): did not affect; also recorded: not affected | decrease of plasma insulin level in fed condition (Normal rats [1]; fed, 42 h after Ab14 100 mg/kg i.v., 18 h after metformin 500 mg/kg p.o., not significant): 18% | decrease of blood glucose in 6 hours fasting condition, just before clamp (Normal rats [1]; metformin 500 mg/kg p.o.): 17% | change of glucose utilization in the heart (Normal rats [2]): −39% | glucose utilization rate in white adipose tissues (deep and subcutaneous) (Normal rats [2]): did not affect | increase of glucose utilization in mixed vastus lateralis muscle (VL) (Normal rats [2]): 49% | increase of glucose utilization in glycolytic extensor digitorum longus muscle (EDL) (Normal rats [2]; NS): 19% | body weight (HFD rats; 10 days of treatment, Ab14 10, 30, 100 mg/kg/week i.v., metformin 200 mg/kg/day): significantly decreased | body weight gain (HFD rats; Ab14 30 mg/kg, metformin 200 mg/kg): significantly decreased | decrease of cumulative food consumption (HFD rats; [5]): 25% | food consumption (follow-up food intake) (HFD rats; [5]): significantly decreased | increase of plasma triglycerides levels ([3]; day 12, metformin 200 mg/kg/day, vs vehicle): 26% | increase of free fatty acids levels ([3]; day 12, metformin 200 mg/kg/day): 14% | increase of plasma triglycerides levels ([3]; day 19, metformin 200 mg/kg/day, vs vehicle): 40% | increase of free fatty acids levels ([3]; day 19, metformin 200 mg/kg/day): 25% | increase of plasma triglycerides levels ([3]; day 26, metformin 200 mg/kg/day, vs vehicle): 49% | increase of free fatty acids levels ([3]; day 26, metformin 200 mg/kg/day): 8% | non HDL-cholesterol levels ([3]; metformin 200 mg/kg/day alone or in combination with AB14, vs vehicle): no effect | plasma HDL-cholesterol ([3]; metformin 200 mg/kg/day alone, vs vehicle): no effect | plasma insulin and C-peptide levels 15 and 30 minutes after the glucose load ([4]; day 26, metformin 200 mg/kg/day, pioglitazone 10 mg/kg/day, vs vehicle): slightly increased | reduction in blood glucose AUC (OGTT) ([4]; day 26, pioglitazone 10 mg/kg/day, metformin 200 mg/kg/day, vs vehicle ZDF): 6%
